Ends that are not written are not given here.
B1: SSTR5 protein fragment (cytoplasmic tail 307-364aa) (domain or fragment, UniProt P35346 307-364, looked up)
chain: LSDNFRQSFQKVLCLRKGSGAKDADATEPRPDRIRQQQEATPPAHRAAANGLMQTSKL
modifications: also: RED-NHS dye label in the labeled-partner assay, site not given here
notes: also called SSTR5 (307-362 aa); SSTR5 cytoplasmic tail

Assays:
[1] = molecular target: T1, ZDHHC5 (Homo sapiens, UniProt Q9C0B5); experiment: microscale thermophoresis (MST) with labeled ZDHHC5 fragment; assay type: binding
T1 construct: protein fragment 60-148aa expressed using Yeast
T1 sequence (Q9C0B5 60-148): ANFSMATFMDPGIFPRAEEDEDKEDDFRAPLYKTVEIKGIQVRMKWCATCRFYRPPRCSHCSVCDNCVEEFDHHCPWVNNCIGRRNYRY

[2] = molecular target: T2, ZDHHC5 protein fragment (60-148aa), ZDHHC5's substrate binding domain (UniProt Q9C0B5 60-148, RED-NHS 2nd Generation dye label where it was the labeled partner (assay without Lomitapide); unlabeled in the assay with Lomitapide); experiment: MST; in the presence of 25 uM Lomitapide: 20 nM labeled SSTR5 and 25 uM Lomitapide mixed with unlabeled ZDHHC5 in 16 serial concentrations (maximum 200 nM), RT, 1.05*PBS; conditions: both partners purified
T2 construct: also called ZDHHC5 substrate domain; source: expressed using Yeast; labeled and purified with the labeling kit
T2 sequence (Q9C0B5 60-148): as above

[3] = molecular target: T2, ZDHHC5 protein fragment (60-148aa), …; experiment: MST; 20 nM labeled ZDHHC5 mixed with unlabeled SSTR5 in 16 serial concentrations (maximum 200 nM), RT, 1.05*PBS; Monolith NT.115, LED 20%, medium MST power; conditions: both partners purified

Row | Molecule | Kd [1] | Kd [2] | Kd [3]
1 | CCCCCCCCCCCCCCCC(=O)O [palmitic acid] | 88 nM |  | 
2 | O=C(NC1CCN(CCCCC2(C(=O)NCC(F)(F)F)c3ccccc3-c3ccccc32)CC1)c1ccccc1-c1ccc(C(F)(F)F)cc1 [Lomitapide] | 509 nM |  | 
3 | B1 |  | 22.5 nM | 2.06 nM

From publication PMC9922277, “Repositioning Lomitapide to block ZDHHC5-dependant palmitoylation on SSTR5 leads to anti-proliferation effect in preclinical pancreatic cancer models” (Cell Death Discovery, 2023)
